Test results published in publication PMC6882824, “Engineering of chimeric peptides as antagonists for the G protein-coupled receptor, RXFP4” (Scientific Reports, 2019).
Read-outs that look alike come from different tables or passages of the source. Bridge positions count the residues as written; N and C are the ends. Peptide text beside a SMILES is read from it. I, II: the chains in the order shown.

Tests used:
[1] = molecular target: T1, RXFP4 (Homo sapiens, UniProt Q8TDU9); test: Competition binding in CHO-K1-RXFP4 cells (Eu-DTPA-mINSL5); design: expressed in transfected cells; host or cells: CHO-K1 (ATCC), stably transfected; details: CHO-K1 cells stably transfected with RXFP4; competition with 5 nM Eu-DTPA-mINSL5; read-out: RXFP4 Binding Ki
Protocol: (§1) Chinese hamster ovary CHO-K1 cells (sourced from American Type Culture Collection (ATCC), Maryland, USA) stably transfected with RXFP3[33] or RXFP4[9] were plated out onto precoated poly-L-lysine 96-well view plates at a density of 50 000 cells per well. Medium was aspirated off and the cells were washed with phosphate-buffered saline (PBS) before competition binding assays were performed with 5 nM Eu-H3B1–22R[34] (RXFP3 ligand) or 5 nM Eu-DTPA-mINSL5[9] (RXFP4 ligand) as previously described. Competition binding curves were performed in triplicate and each experiment was performed independently at least three times. Fluorescent measurements were carried out on a BMG POLARstar plate reader (BMG Labtech, Melbourne, Australia. Pooled data are presented as mean ± S.E of specific binding and are fitted using one-site binding curve in GraphPad Prism version 8 (GraphPad Inc., San Diego, USA). Statistical analyses were conducted using one-way analysis of variance with uncorrected Fisher’s least significant difference (LSD) post-hoc analysis in GraphPad Prism version 8.

[2] = molecular target: T1, RXFP4; test: cAMP agonist assay (inhibition of forskolin-induced cAMP, pCRE β-galactosidase reporter) in CHO-K1-RXFP4 cells; format: cell-based; design: expressed in transfected cells; host or cells: CHO-K1 (ATCC), stably transfected; details: CHO-K1-RXFP4 cells, inhibition of 1 µM forskolin-induced cAMP, 6 hours; mean ± SEM, n in cell
Protocol: (§2) The peptides were tested for their ability to inhibit forskolin induced cAMP activity in CHO-K1-RXFP3 or CHO-K1-RXFP4 cells transfected with a pCRE (cAMP Response Element) β-galactosidase reporter plasmid as previously described[9],[34]. For agonist assays cells were stimulated with forskolin (5 µM for RXFP3, 1 µM for RXFP4) plus or minus increasing concentrations of each peptide for 6 hours. For antagonist assays cells were stimulated with forskolin as in agonist assays plus increasing concentrations of each peptide for 10 minutes followed by stimulation with agonist at an ~EC80 concentration for a further 6 hours (10 nM Analogue 2 for RXFP3 and 16.6 nM Analogue 13 for RXFP4). Each peptide was tested in triplicate and each experiment was performed independently at least three times. Agonist data was expressed as the % Forskolin activity whereby 100% was defined as Forskolin alone and 0% as maximum agonist stimulation (1 µM Analogue 2 for RXFP3 and 1 µM Analogue 13 for RXFP4). […] Data were analysed and plotted using GraphPad PRISM 8 and are expressed as the mean ± SEM of the pooled data. Statistical analysis was conducted using one-way ANOVA with Uncorrected Fisher’s LSD post-hoc analysis in GraphPad Prism version 8.

[3] = molecular target: T2, RXFP3 (Homo sapiens, UniProt Q9NSD7); test: cAMP antagonist assay against 10 nM analogue 2 in CHO-K1-RXFP3 cells; format: cell-based; details: for IC50: CHO-K1-RXFP3 cells; for Emax: SEM, read-out: RXFP3 Emax (antagonist efficacy)
T2 construct: expressed in transfected cells; host or cells: CHO-K1 (ATCC), stably transfected
T2 sequence (Q9NSD7 1-469): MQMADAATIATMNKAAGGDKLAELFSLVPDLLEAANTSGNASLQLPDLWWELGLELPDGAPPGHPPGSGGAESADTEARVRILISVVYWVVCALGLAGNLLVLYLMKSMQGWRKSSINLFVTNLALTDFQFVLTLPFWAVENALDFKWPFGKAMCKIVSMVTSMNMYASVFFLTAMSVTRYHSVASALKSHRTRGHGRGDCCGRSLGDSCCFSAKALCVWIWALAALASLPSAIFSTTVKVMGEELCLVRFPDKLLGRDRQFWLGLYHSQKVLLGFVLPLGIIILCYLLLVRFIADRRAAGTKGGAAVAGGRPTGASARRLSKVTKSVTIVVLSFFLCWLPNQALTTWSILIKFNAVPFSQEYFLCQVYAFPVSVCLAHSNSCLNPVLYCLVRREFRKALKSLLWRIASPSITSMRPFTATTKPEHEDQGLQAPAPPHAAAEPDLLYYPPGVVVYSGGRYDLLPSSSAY
Protocol: as §2

[4] = molecular target: T2, RXFP3; test: cAMP agonist assay (inhibition of forskolin-induced cAMP, pCRE β-galactosidase reporter) in CHO-K1-RXFP3 cells; format: cell-based; details: CHO-K1-RXFP3 cells, inhibition of 5 µM forskolin-induced cAMP, 6 hours; mean ± SEM, n in cell
Protocol: as §2

[5] = molecular target: T2, RXFP3; test: Competition binding in CHO-K1-RXFP3 cells (Eu-H3B1-22R); details: CHO-K1 cells stably transfected with RXFP3; competition with 5 nM Eu-H3B1-22R; read-out: RXFP3 Binding Ki
Protocol: as §1

[6] = molecular target: T1, RXFP4; test: cAMP antagonist assay against 16.6 nM analogue 13 in CHO-K1-RXFP4 cells; format: cell-based; design: expressed in transfected cells; host or cells: CHO-K1 (ATCC), stably transfected; details: for Emax: SEM, read-out: RXFP4 Emax (antagonist efficacy)
Protocol: as §2

T1 sequence (Q8TDU9 whole entry): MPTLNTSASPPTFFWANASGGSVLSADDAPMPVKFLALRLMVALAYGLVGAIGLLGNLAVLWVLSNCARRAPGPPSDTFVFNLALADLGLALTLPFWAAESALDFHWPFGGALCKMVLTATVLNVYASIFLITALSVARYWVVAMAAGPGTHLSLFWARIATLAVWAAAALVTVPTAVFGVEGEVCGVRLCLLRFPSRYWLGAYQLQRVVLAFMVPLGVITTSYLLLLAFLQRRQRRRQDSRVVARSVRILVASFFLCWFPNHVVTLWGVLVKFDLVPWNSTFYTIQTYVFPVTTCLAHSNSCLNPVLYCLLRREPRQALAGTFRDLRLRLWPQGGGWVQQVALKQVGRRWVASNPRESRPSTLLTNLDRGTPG

Compound	Ki [1]	RXFP4 Activity pEC50 [2]	IC50 ([3]; block of 10 nM analogue 2, read-out: RXFP3 Antagonist potency IC50)	Emax [3]	RXFP3 Activity pEC50 [4]	Ki [5]	IC50 ([6]; CHO-K1-RXFP4 cells, block of 16.6 nM analogue 13, read-out: RXFP4 Antagonist potency IC50)	Emax [6]	IC50 ([3]; peptide 10 minutes, then 10 nM analogue 2 for 6 hours, 5 µM forskolin, mean ± SEM, read-out: RXFP3 Antagonist potency pIC50 (converted))
CC[C@H](C)[C@@H]1NC(=O)[C@H](Cc2ccccc2)NC(=O)[C@H](CCC(=O)O)NC(=O)[C@H](CC(C)C)NC(=O)CNC(=O)[C@@H](NC(=O)[C@H](CC(C)C)NC(=O)[C@H](CCCNC(=N)N)NC(=O)[C@@H](NC(=O)CNC(=O)[C@H](Cc2ccc(O)cc2)NC(=O)[C@@H]2CCCN2C(=O)[C@H](C)NC(=O)[C@H](C)NC(=O)[C@@H](N)CCCNC(=N)N)C(C)C)CSSC[C@@H]2NC(=O)[C@@H](NC(=O)[C@H](CC(C)C)NC(=O)[C@@H](NC(=O)[C@H](CCC(N)=O)NC(=O)[C@H](CC(C)C)NC(=O)[C@H](CC(=O)O)NC(=O)[C@@H]3CCC(=O)N3)[C@@H](C)O)CSSC[C@H](NC(=O)CNC(=O)[C@H](CC(=O)O)NC(=O)[C@H]([C@@H](C)O)NC2=O)C(=O)N[C@@H](CO)C(=O)N[C@@H](CCSC)C(=O)N[C@@H]([C@@H](C)O)C(=O)N[C@@H](CC(=O)O)C(=O)N[C@@H](CC(C)C)C(=O)N[C@@H](CO)C(=O)N[C@@H](C)C(=O)N[C@@H](CC(C)C)C(=O)N[C@H](C(=O)O)CSSC[C@@H](C(=O)N[C@@H](CCCNC(=N)N)C(=O)O)NC(=O)[C@H]([C@@H](C)O)NC(=O)[C@H](Cc2ccccc2)NC(=O)[C@H]([C@@H](C)CC)NC(=O)[C@H](C(C)C)NC(=O)[C@H](C)NC(=O)[C@H](CCCNC(=N)N)NC1=O [Analogue 14]	24 nM	Weak partial agonist (6)	263 nM	66.5 ± 14.8%	No activity (3)	24 nM	331 nM	37.3 ± 7.6%	
CC[C@H](C)[C@@H]1NC(=O)[C@H](Cc2ccccc2)NC(=O)[C@H](CCC(=O)O)NC(=O)[C@H](CCCNC(=N)N)NC(=O)CNC(=O)[C@@H](NC(=O)[C@H](CC(C)C)NC(=O)[C@H](CCCNC(=N)N)NC(=O)[C@@H](NC(=O)CNC(=O)[C@H](Cc2ccc(O)cc2)NC(=O)[C@@H]2CCCN2C(=O)[C@H](C)NC(=O)[C@H](C)NC(=O)[C@@H](N)CCCNC(=N)N)C(C)C)CSSC[C@H](N)C(=O)N[C@@H]([C@@H](C)O)C(=O)N[C@@H](CC(=O)O)C(=O)NCC(=O)N[C@@H](C)C(=O)N[C@@H](CO)C(=O)N[C@@H](CCSC)C(=O)N[C@@H](CCCCN)C(=O)N[C@@H](CC(=O)O)C(=O)N[C@@H](CC(C)C)C(=O)N[C@@H](CO)C(=O)N[C@@H](C)C(=O)N[C@@H](CC(C)C)C(=O)N[C@H](C(=O)O)CSSC[C@@H](C(=O)N[C@@H](CCCNC(=N)N)C(=O)O)NC(=O)[C@H]([C@@H](C)O)NC(=O)[C@H](Cc2ccccc2)NC(=O)[C@H]([C@@H](C)CC)NC(=O)[C@H](C(C)C)NC(=O)[C@H](C)NC(=O)[C@H](CCCNC(=N)N)NC1=O [Analogue 15] (I: H-RAAPYGVRLCGREFIRAVIFTCR-OH / II: H-CTDGASMKDLSALC-OH; disulfide I:10-II:1, I:22-II:14)	22.9 nM	Weak partial agonist (5)		43.5 ± 12.1%	No activity (4)	15.5 nM		49.4 ± 6.2%	> 10000 nM
